Results as given in patent US9388209B2, “2′, 3′-dideoxy-5-fluorouridine derivatives, a process for the manufacture thereof and application thereof” (ADAM MICKIEWICZ UNIVERSITY, priority 2014, dated 2016).
≈ marks a conversion by molar mass, not a printed value. Where “and” joins values, the source holds several entries; their conditions need not be identical. Equal values may be shown once.

Legend:
MCF-7 (breast cancer) [1] = test: Cytotoxicity test with sulphorhodamine B, MCF-7 line; conditions: for IC50: Homo sapiens, MCF7, 72 h, read-out: Cytotoxic activity IC50 MCF-7 line (breast cancer), 72 hours incubation, average of three independent determinations
Description: (§1) Cytotoxicity tests were carried out using a standard procedure with sulphorhodamine B. They involved incubation of the cancer cell lines in the logarithmic growth phase for 72 hours with the compound tested and, subsequently, spectrophotometric determination of the degree of cell growth inhibition using adsorption of a dye (sulphorhodamine B) which binds cellular proteins.
(§2) Cells of the cell line tested in the logarithmic growth phase were seeded onto 24-well plates in a quantity of 20,000 cells/2 mL of the growth medium per well and, subsequently, incubated in an incubator at 37° C., in the 5% CO2 atmosphere for 24 hours.
(§3) Solutions of the test compounds were prepared in DMSO in the following concentration range: 0.05; 0.1; 0.5; 1; 5; 10; 50; 100; 500 μM.
(§4) The cells of the lines tested were treated with the solutions of the test compounds in a laminar-flow chamber which ensured sterile working conditions according to the following procedure: the first three wells were used as a blank: they contained 20 μL of DMSO only; successive solutions of the test compound were added to subsequent wells (20 μL), starting with the lowest concentration (three wells for each concentration level). Subsequently, the plates were placed in an incubator for 72 hours.
(§5) After the end of incubation, the adhered cells were fixed by adding 500 μL of cold (4° C. 50% trichloroacetic acid (TCA) and incubated at 4° C. for 1 hour. Subsequently, each well was rinsed with sterile water and dried. The operation was repeated five times. The fixed cells were stained for 30 minutes by adding 500 μL of 0.4% of a dye solution (sulphorhodamine B) dissolved in 1% acetic acid. Any unbound dye was removed by decanting it from the plate, and the cells were washed 4 times with 1% acetic acid. Subsequently, the plates were dried in air for approx. 5 minutes. Any unbound dye was dissolved by adding 1500 μL of 10 mM Tris-base buffer (trishydroxymethylaminomethane) to each well and shaken using an orbital shaker for 5 minutes. Subsequently, 200 μL of solution from each well was transferred to each of two wells on a new 96-well plate and absorption of the solutions was determined spectrophotometrically at a wavelength of 490-530 nm using a plate reader. Percentage inhibition of cell growth by the test compound was calculated assuming the absorption of the control solution as 100%.
(§6) Depending on the type of the cell line, the following growth media were used: • the MCF-7 line was grown in Dulbecco's Modified Eagle's Medium (DME) from Sigma (cat. no. D5796), • the HeLa and Hep-G2 lines were grown in PPMI-1640 Medium from Sigma (cat. no. R8758).

[2] = test system: L1210 cancer in mice induced by MLV retroviruses; conditions: literature (Colla et al. 1985); cited from earlier work
Hep-G2 (hepatic cancer) = test: Cytotoxicity test with sulphorhodamine B, Hep-G2 line; assay type: cell-based; conditions: for IC50: Homo sapiens, HepG2, 72 hours incubation, average of three independent determinations, read-out: Cytotoxic activity IC50 Hep-G2 (hepatic cancer); for fold higher activity than AddFU: Hep-G2, ratio of IC50
Description: The values are average results of three independent determinations.

HeLa (cervical cancer) [3] = test: Cytotoxicity test with sulphorhodamine B, HeLa line; conditions: for IC50: Homo sapiens, 72 h, read-out: Cytotoxic activity IC50 HeLa (cervical cancer), 72 hours incubation, average of three independent determinations
Description: as §1, §2, §3, §4, §5, §6

sarcoma 180 = conditions: literature (Lin et al. 1983); cited from earlier work
HeLa (cervical cancer) [4] = conditions: for Cytotoxic activity IC50 HeLa (cervical cancer): human, 72 h
Description: as §1, §2, §3, §4, §5, §6

MCF-7 (breast cancer) [5] = conditions: for Cytotoxic activity IC50 MCF-7 line (breast cancer): human, 72 h
Description: as §1, §2, §3, §4, §5, §6

Structure (SMILES)	IC50 (MCF-7 (breast cancer) [1])	IC50 (Hep-G2 (hepatic cancer))	IC50 (HeLa (cervical cancer) [3])	cytotoxic activity in words, cervical cancer cells (HeLa line) (HeLa (cervical cancer) [4])	fold higher activity than AddFU (Hep-G2 (hepatic cancer))	further results
[N-]=[N+]=N[C@H]1C[C@H](n2cc(F)c(=O)[nH]c2=O)O[C@@H]1CO [3′-azido-2′,3′-dideoxy-5-fluorouridine, reference compound]	2.2 µg/mL and 8.11 µM	16 µg/mL and 59 µM	3 µg/mL and 11.1 µM	–	–	IC50 against L1210 cancer [2]: 34 µg/mL (≈ 125 µM); activity against sarcoma 180 in vitro, in words (sarcoma 180): weak activity
O=c1[nH]c(=O)n([C@H]2C[C@H](O)[C@@H](CO)O2)cc1F [5-fluoro-2′-deoxyuridine, reference compound]	2.81 µg/mL and 11.4 µM	–	3.2 µg/mL and 13 µM	–	–	–
O=c1[nH]c(=O)n(C2CC(n3cc(C4CN5CCC4C[C@H]5[C@H](O)c4ccnc5ccccc45)nn3)C(CO)O2)cc1F (stereo partly drawn) [CD5FdU, 5-Fluoro-1-(5-hydroxymethyl-4-{4-[6-(hydroxy-quinolin-4-yl-methyl)-1-aza-bicyclo[2.2.2]oct-3-yl]-[1,2,3]triazol-1-yl}-tetrahydro-furan-2-yl)-1H-pyrimidine-2,4-dione]	6.9 µg/mL and 12.2 µM	–	7 µg/mL and 12.4 µM	medium active	–	–
O=c1[nH]c(=O)n(C2CC(n3cc(C4CN5CCC4C[C@@H]5[C@@H](O)c4ccnc5ccccc45)nn3)C(CO)O2)cc1F (stereo partly drawn) [CN5FdU, 5-Fluoro-1-(5-hydroxymethyl-4-{4-[6-(hydroxy-quinolin-4-yl-methyl)-1-aza-bicyclo[2.2.2]oct-3-yl]-[1,2,3]triazol-1-yl}-tetrahydro-furan-2-yl)-1H-pyrimidine-2,4-dione]	7 µg/mL and 12.4 µM	–	7.9 µg/mL and 14 µM	medium active	–	–
C=CC1C[N@@]2CCC1C[C@H]2[C@H](OCc1cn(C2CC(n3cc(F)c(=O)[nH]c3=O)OC2CO)nn1)c1ccnc2ccccc12 (stereo partly drawn) [PCD5FdU, 5-Fluoro-1-(5-hydroxymethyl-4-{4-[quinolin-4-yl-(5-vinyl-1-aza-bicyclo[2.2.2]oct-2-yl)-methoxymethyl]-[1,2,3]triazol-1-yl}-tetrahydrofuran-2-yl)-1H-pyrimidine-2,4-dione]	13 µg/mL and 21.5 µM	–	21.4 µg/mL and 35.5 µM	medium active	–	–
C=CC1C[N@@]2CCC1C[C@@H]2C(OCc1cn(C2CC(n3cc(F)c(=O)[nH]c3=O)OC2CO)nn1)c1ccnc2ccccc12 (stereo partly drawn) [PCN5FdU, 5-Fluoro-1-(5-hydroxymethyl-4-{4-[quinolin-4-yl-(5-vinyl-1-aza-bicyclo[2.2.2]oct-2-yl)-methoxymethyl]-[1,2,3]triazol-1-yl}-tetrahydrofuran-2-yl)-1H-pyrimidine-2,4-dione]	27.2 µg/mL and 45.1 µM	–	27.6 µg/mL and 45.7 µM	medium active	–	–
C=CC1C[N@@]2CCC1C[C@@H]2[C@@H](OCc1cn(C2CC(n3cc(F)c(=O)[nH]c3=O)OC2CO)nn1)c1ccnc2ccc(OC)cc12 (stereo partly drawn) [PQD5FdU, 5-Fluoro-1-(5-hydroxymethyl-4-{4-[(6-methoxyquinolin-4-yl)-(5-vinyl-1-aza-bicyclo[2.2.2]oct-2-yl)-methoxymethyl]-[1,2,3]triazol-1-yl}-tetrahydrofuran-2-yl)-1H-pyrimidine-2,4-dione]	2.9 µg/mL and 4.58 µM	6 µg/mL and 9.47 µM	2.8 µg/mL and 4.42 µM	–	more than twice as high	cytotoxic activity in words, breast cancer cells (MCF-7 (breast cancer) [5]): medium active
C=CC1C[N@@]2CCC1C[C@H]2[C@H](OCc1cn(C2CC(n3cc(F)c(=O)[nH]c3=O)OC2CO)nn1)c1ccnc2ccc(OC)cc12 (stereo partly drawn) [PQN5FdU, 5-Fluoro-1-(5-hydroxymethyl-4-{4-[(6-methoxyquinolin-4-yl)-(5-vinyl-1-aza-bicyclo[2.2.2]oct-2-yl)-methoxymethyl]-[1,2,3]triazol-1-yl}-tetrahydrofuran-2-yl)-1H-pyrimidine-2,4-dione]	0.98 µg/mL to 1.5 µg/mL and 2.37 µM	6.2 µg/mL and 9.78 µM	1.6 µg/mL to 2.8 µg/mL and 3.16 µM	–	more than twice as high	Cytotoxic activity IC50 MCF-7 line (breast cancer) (MCF-7 (breast cancer) [5]): 1.5 µg/mL; Cytotoxic activity IC50 HeLa (cervical cancer) (HeLa (cervical cancer) [4]): 2.0 µg/mL
COc1ccc2nccc([C@H](O)[C@H]3CC4CC[N@]3CC4c3cn(C4CC(n5cc(F)c(=O)[nH]c5=O)OC4CO)nn3)c2c1 (stereo partly drawn) [QD5FdU, 5-Fluoro-1-[4-(4-{6-[hydroxy-(6-methoxyquinolin-4-yl)-methyl]-1-aza-bicyclo[2.2.2]oct-3-yl}-[1,2,3]triazol-1-yl)-5-hydroxymethyl-tetrahydro-furan-2-yl]-1H-pyrimidine-2,4-dione]	0.98 µg/mL to 1.5 µg/mL and 1.65 µM	–	1.6 µg/mL to 2.8 µg/mL and 2.7 µM	–	–	Cytotoxic activity IC50 MCF-7 line (breast cancer) (MCF-7 (breast cancer) [5]): 0.98 µg/mL; Cytotoxic activity IC50 HeLa (cervical cancer) (HeLa (cervical cancer) [4]): 1.6 µg/mL
COc1ccc2nccc(C(O)[C@@H]3CC4CCN3CC4c3cn(C4CC(n5cc(F)c(=O)[nH]c5=O)OC4CO)nn3)c2c1 (stereo partly drawn) [QN5FdU, 5-Fluoro-1-[4-(4-{6-[hydroxy-(6-methoxyquinolin-4-yl)-methyl]-1-aza-bicyclo[2.2.2]oct-3-yl}-[1,2,3]triazol-1-yl)-5-hydroxymethyl-tetrahydro-furan-2-yl]-1H-pyrimidine-2,4-dione]	0.16 µg/mL and 270 nM	3.8 µg/mL and 6.4 µM	0.16 µg/mL and 270 nM	–	4 fold	fold higher activity than 5FdU (MCF-7 (breast cancer) [1]; MCF-7, ratio of IC50): more than 17.5 fold; fold higher activity than AddFU (MCF-7 (breast cancer) [1]; MCF-7, ratio of IC50): more than 13 fold; fold higher activity than 5FdU (HeLa (cervical cancer) [3]; ratio of IC50): more than 20 fold; fold higher activity than AddFU (HeLa (cervical cancer) [3]; ratio of IC50): more than 18 fold
